Measurements reported in PubChem BioAssay AID1845204 (Molecular Pharmacology Branch, DTP, NCI, 2023).
Where “and” joins values, the source holds several entries; their conditions need not be identical. Equal values may be shown once.

System: HSSY-II tumor spheroid viability
Experiment: Anticancer human tumor HSSY-II cell line growth inhibition;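 further: spheroids exposed to compounds for seven days before reading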;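 on viability, T/C: percent of DMSO vehicle control viability so 100% = untreated level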
Settings: spheroids with HUVEC and MSC; for viability, T/C: stronger effect = lower value
How it was run: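 Complex tumor spheroids combined malignant cells with endothelial cells and mesenchymal stem cells. DNA-damaging drugs and DNA repair inhibitors were tested alone and in combination, at half-log dilutions down from clinical Cmax (top 10 microM if Cmax unknown), 0.25% DMSO final.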

`COc1ccc([C@@H](O)c2cc(-c3ncnc4cc(N5CCOCC5)ccc34)c(F)cc2Cl)nn1` + CC[C@@]1(O)C(=O)OCc2c1cc1n(c2=O)Cc2cc3c(CN(C)C)c(O)ccc3nc2-1 was tested. Which IC50 (curve of first compound, second compound 0.003 µM) did it give?
Its IC50 is 1.38 µM.

And the IC50 (curve of first compound, second compound 0.00949 µM)?
Its IC50 is 0.902 µM.

What about the IC50 (curve of first compound, second compound 0.03 µM) of the same compound?
The IC50 was under 0.0316 µM.

What about the IC50 (curve of first compound, second compound 0.0949 µM) of the same compound?
Its IC50 is under 0.0316 µM.

And the IC50 (curve of first compound, second compound 0.3 µM)?
The IC50 was under 0.0316 µM.

And the viability, T/C (second compound 0.003 µM, first compound 0.0316 µM)?
Its viability, T/C is 88.8%.

What about the viability, T/C (second compound 0.003 µM, first compound 0.1 µM) of the same compound?
Its viability, T/C is 89.5%.

What about the viability, T/C (second compound 0.003 µM, first compound 0.316 µM) of the same compound?
The viability, T/C was 74.8%.

And the viability, T/C (second compound 0.003 µM, first compound 1 µM)?
The viability, T/C was 61.5%.

And the viability, T/C (second compound 0.003 µM, first compound 3.16 µM)?
Its viability, T/C is 26.5%.

What about the viability, T/C (second compound 0.003 µM, first compound 10 µM) of the same compound?
The viability, T/C was 8.32%.

And the viability, T/C (second compound 0.00949 µM, first compound 0.0316 µM)?
Its viability, T/C is 62.6%.

And the viability, T/C (second compound 0.00949 µM, first compound 0.1 µM)?
The viability, T/C was 65.5%.

What about the viability, T/C (second compound 0.00949 µM, first compound 0.316 µM) of the same compound?
The viability, T/C was 63.8%.

What about the viability, T/C (second compound 0.00949 µM, first compound 1 µM) of the same compound?
Its viability, T/C is 48.6%.

And the viability, T/C (second compound 0.00949 µM, first compound 3.16 µM)?
The viability, T/C was 11.7%.

What about the viability, T/C (second compound 0.00949 µM, first compound 10 µM) of the same compound?
Its viability, T/C is 3.18%.

And the viability, T/C (second compound 0.03 µM, first compound 0.0316 µM)?
Its viability, T/C is 10.3%.

And the viability, T/C (second compound 0.03 µM, first compound 0.1 µM)?
Its viability, T/C is 12.2%.

And the viability, T/C (second compound 0.03 µM, first compound 0.316 µM)?
Its viability, T/C is 10.3%.

And the viability, T/C (second compound 0.03 µM, first compound 1 µM)?
The viability, T/C was 6.74%.

What about the viability, T/C (second compound 0.03 µM, first compound 3.16 µM) of the same compound?
The viability, T/C was 2.41%.

What about the viability, T/C (second compound 0.03 µM, first compound 10 µM) of the same compound?
Its viability, T/C is 1.53%.

What about the viability, T/C (second compound 0.0949 µM, first compound 0.0316 µM) of the same compound?
The viability, T/C was 9.13%.

And the viability, T/C (second compound 0.0949 µM, first compound 0.1 µM)?
The viability, T/C was 8.32%.

What about the viability, T/C (second compound 0.0949 µM, first compound 0.316 µM) of the same compound?
The viability, T/C was 7.14%.

And the viability, T/C (second compound 0.0949 µM, first compound 1 µM)?
Its viability, T/C is 2.81%.

What about the viability, T/C (second compound 0.0949 µM, first compound 3.16 µM) of the same compound?
The viability, T/C was 1.55%.

And the viability, T/C (second compound 0.0949 µM, first compound 10 µM)?
The viability, T/C was 1.22%.

And the viability, T/C (second compound 0.3 µM, first compound 0.0316 µM)?
The viability, T/C was 6.23%.

What about the viability, T/C (second compound 0.3 µM, first compound 0.1 µM) of the same compound?
Its viability, T/C is 5.53%.

And the viability, T/C (second compound 0.3 µM, first compound 0.316 µM)?
The viability, T/C was 4.4%.

What about the viability, T/C (second compound 0.3 µM, first compound 1 µM) of the same compound?
The viability, T/C was 2.36%.

What about the viability, T/C (second compound 0.3 µM, first compound 3.16 µM) of the same compound?
Its viability, T/C is 1.09%.

What about the viability, T/C (second compound 0.3 µM, first compound 10 µM) of the same compound?
The viability, T/C was 0.71%.

With `Cc1cc(C)c(CNC(=O)c2cc(-c3ccc(CN4CCOCC4)cc3)cc3c2cnn3C2CCCC2)c(=O)[nH]1` as the compound, how does the viability, T/C (compound 0.0316 µM) read?
The viability, T/C was 109% and 94.6% and 92.3%.

And the viability, T/C (compound 0.1 µM)?
The viability, T/C was 107% and 99.1% and 103%.

What about the viability, T/C (compound 0.316 µM) of the same compound?
Its viability, T/C is 107% and 106% and 102%.

What about the viability, T/C (compound 1 µM) of the same compound?
Its viability, T/C is 107% and 102% and 91.9%.

And the viability, T/C (compound 3.16 µM)?
Its viability, T/C is 104% and 95.3% and 96.5%.

What about the viability, T/C (compound 10 µM) of the same compound?
Its viability, T/C is 64.3% and 69.4% and 77.4%.

And the IC50 (curve of compound)?
Its IC50 is over 10 µM.

Which IC50 (curve of first compound, second compound 1 µM) does the source give for `COc1cc(C)[nH]c(=O)c1CN1CCc2c(Cl)cc(C(OC)C3COC3)c(Cl)c2C1=O` (configuration not stated) + Cn1nnc2c(C(N)=O)ncn2c1=O here?
The IC50 was over 10 µM.

And the IC50 (curve of first compound, second compound 3.16 µM)?
The IC50 was over 10 µM.

And the IC50 (curve of first compound, second compound 10 µM)?
The IC50 was over 10 µM.

And the IC50 (curve of first compound, second compound 31.6 µM)?
The IC50 was over 10 µM.

And the IC50 (curve of first compound, second compound 100 µM)?
Its IC50 is over 10 µM.

What about the viability, T/C (second compound 1 µM, first compound 0.0316 µM) of the same compound?
The viability, T/C was 96.7%.

And the viability, T/C (second compound 1 µM, first compound 0.1 µM)?
Its viability, T/C is 93.1%.

What about the viability, T/C (second compound 1 µM, first compound 0.316 µM) of the same compound?
The viability, T/C was 69.1%.

And the viability, T/C (second compound 1 µM, first compound 1 µM)?
The viability, T/C was 69.2%.

And the viability, T/C (second compound 1 µM, first compound 3.16 µM)?
The viability, T/C was 63.2%.

What about the viability, T/C (second compound 1 µM, first compound 10 µM) of the same compound?
Its viability, T/C is 63%.

What about the viability, T/C (second compound 3.16 µM, first compound 0.0316 µM) of the same compound?
The viability, T/C was 96.7%.

What about the viability, T/C (second compound 3.16 µM, first compound 0.1 µM) of the same compound?
Its viability, T/C is 84.2%.

And the viability, T/C (second compound 3.16 µM, first compound 0.316 µM)?
The viability, T/C was 76.5%.

And the viability, T/C (second compound 3.16 µM, first compound 1 µM)?
Its viability, T/C is 66.2%.

What about the viability, T/C (second compound 3.16 µM, first compound 3.16 µM) of the same compound?
Its viability, T/C is 64.6%.

And the viability, T/C (second compound 3.16 µM, first compound 10 µM)?
Its viability, T/C is 60.9%.

What about the viability, T/C (second compound 10 µM, first compound 0.0316 µM) of the same compound?
Its viability, T/C is 95.3%.

What about the viability, T/C (second compound 10 µM, first compound 0.1 µM) of the same compound?
The viability, T/C was 94.2%.

What about the viability, T/C (second compound 10 µM, first compound 0.316 µM) of the same compound?
The viability, T/C was 75.6%.

What about the viability, T/C (second compound 10 µM, first compound 1 µM) of the same compound?
The viability, T/C was 66.8%.

And the viability, T/C (second compound 10 µM, first compound 3.16 µM)?
Its viability, T/C is 62.7%.

What about the viability, T/C (second compound 10 µM, first compound 10 µM) of the same compound?
The viability, T/C was 63%.

What about the viability, T/C (second compound 31.6 µM, first compound 0.0316 µM) of the same compound?
The viability, T/C was 99.7%.

What about the viability, T/C (second compound 31.6 µM, first compound 0.1 µM) of the same compound?
Its viability, T/C is 96.3%.

And the viability, T/C (second compound 31.6 µM, first compound 0.316 µM)?
The viability, T/C was 76.9%.

And the viability, T/C (second compound 31.6 µM, first compound 1 µM)?
The viability, T/C was 66.8%.

And the viability, T/C (second compound 31.6 µM, first compound 3.16 µM)?
Its viability, T/C is 65.8%.

What about the viability, T/C (second compound 31.6 µM, first compound 10 µM) of the same compound?
The viability, T/C was 64.6%.

What about the viability, T/C (second compound 100 µM, first compound 0.0316 µM) of the same compound?
The viability, T/C was 96.7%.

And the viability, T/C (second compound 100 µM, first compound 0.1 µM)?
The viability, T/C was 91.4%.

What about the viability, T/C (second compound 100 µM, first compound 0.316 µM) of the same compound?
The viability, T/C was 74.8%.

And the viability, T/C (second compound 100 µM, first compound 1 µM)?
The viability, T/C was 67.4%.

And the viability, T/C (second compound 100 µM, first compound 3.16 µM)?
The viability, T/C was 68.9%.

And the viability, T/C (second compound 100 µM, first compound 10 µM)?
Its viability, T/C is 63.7%.
